Source: PMC12107553 (ACS chemical neuroscience, 2024)
Read-outs that look alike come from different tables or passages of the source.

Columns and labels:
GSK-3β = GSK-3β (Homo sapiens, UniProt P49841); assay: GSK-3β enzyme activity assay; type: biochemical; conditions: for GSK-3β inhibition, result in words: titration from 20 μM
HIV, WT = conditions: read-out: HIV, WT EC50, cited from earlier work
[1] = molecular target: T1, HIV reverse transcriptase (RT) (Human immunodeficiency virus type 1 group M subtype B, UniProt P03366); assay: NNRTI assay; type: biochemical
[2] = molecular target: T1, HIV reverse transcriptase (RT); conditions: read-out: HIV RT IC50; marked *, previously reported data ref 19; cited from earlier work

Chain of GSK-3β (P49841 whole entry): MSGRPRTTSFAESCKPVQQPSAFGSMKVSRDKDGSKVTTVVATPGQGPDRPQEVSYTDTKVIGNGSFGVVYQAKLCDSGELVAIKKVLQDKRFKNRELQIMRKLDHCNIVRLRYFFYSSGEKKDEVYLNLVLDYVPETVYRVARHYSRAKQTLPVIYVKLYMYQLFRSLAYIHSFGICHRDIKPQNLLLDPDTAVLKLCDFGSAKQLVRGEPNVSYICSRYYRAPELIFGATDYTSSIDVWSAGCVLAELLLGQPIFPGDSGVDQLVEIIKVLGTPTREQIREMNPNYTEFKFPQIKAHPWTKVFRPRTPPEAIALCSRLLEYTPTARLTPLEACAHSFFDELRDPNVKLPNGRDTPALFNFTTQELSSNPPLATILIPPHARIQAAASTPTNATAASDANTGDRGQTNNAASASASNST

Row | IC50 (GSK-3β) | SMILES | EC50 (HIV, WT; whole cell activity ref 21) | IC50 [1] | GSK-3β inhibition, result in words (GSK-3β) | EC50 (HIV, WT; whole cell activity ref 22) | IC50 [2]
1 | 619 nM | Cc1cc(C#N)cc(C)c1Oc1nc(Nc2ccc(C#N)cc2)nc(N)c1Br [Etravirine] | 1 nM |  |  |  | 
2 | > 20000 nM | O=C1Nc2ccc(Cl)cc2[C@@](C#CC2CC2)(C(F)(F)F)O1 [Efavirenz] | 2 nM |  | not inhibitors |  | 
3 | 1670 nM | Cc1ccnc2c1NC(=O)c1cccnc1N2C1CC1 [Nevirapine] | 110 nM |  |  |  | 

Row | SMILES | IC50 (GSK-3β) | EC50 (HIV, WT; whole cell activity ref 21) | IC50 [1] | GSK-3β inhibition, result in words (GSK-3β) | EC50 (HIV, WT; whole cell activity ref 22) | IC50 [2]
4 | Cc1cc(/C=C/C#N)cc(C)c1Nc1ccnc(Nc2ccc(C#N)cc2)n1 [Rilpivirine] | 502 nM | 0.67 nM | 160 nM |  |  | 
5 | Cn1c(Cn2ccc(C(F)(F)F)c(Oc3cc(Cl)cc(C#N)c3)c2=O)n[nH]c1=O [Doravirine] | > 20000 nM |  |  | not inhibitors | 13 nM | 20.7 nM
